Data from ChEMBL document CHEMBL1143571 (J Med Chem, 2005).

Experiments:
D(3) dopamine receptor [1] = molecular target: T1, D(3) dopamine receptor (Homo sapiens, UniProt P35462); type: cell-based, CHO
Description: Inhibition constant against [3H]-spiperone binding to human Dopamine receptor D3 expressed in CHO cells

D(4) dopamine receptor [2] = molecular target: T2, D(4) dopamine receptor (Homo sapiens, UniProt P21917); type: cell-based, CHO
T2 sequence (P21917 whole entry): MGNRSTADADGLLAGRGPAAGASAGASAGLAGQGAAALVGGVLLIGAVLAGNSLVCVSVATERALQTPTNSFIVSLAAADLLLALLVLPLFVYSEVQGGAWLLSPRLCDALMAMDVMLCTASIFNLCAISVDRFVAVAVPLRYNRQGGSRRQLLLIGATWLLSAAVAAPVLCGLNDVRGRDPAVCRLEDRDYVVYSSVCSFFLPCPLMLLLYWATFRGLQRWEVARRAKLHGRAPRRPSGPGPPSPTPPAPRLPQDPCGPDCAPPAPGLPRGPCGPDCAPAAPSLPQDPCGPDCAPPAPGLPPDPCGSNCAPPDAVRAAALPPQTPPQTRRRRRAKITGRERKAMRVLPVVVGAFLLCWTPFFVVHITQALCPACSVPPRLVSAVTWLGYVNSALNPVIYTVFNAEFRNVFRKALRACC

D(4) dopamine receptor [3] = molecular target: T2, D(4) dopamine receptor; type: cell-based, CHO; remark: listed apart in the source
Description: High inhibition constant against [3H]spiperone binding to human Dopamine receptor D4.4 expressed in CHO cells

D(1A) dopamine receptor = D(1A) dopamine receptor (Bos taurus, UniProt Q95136); experiment: Inhibition constant against [3H]SCH-23390 binding to Dopamine receptor D1 in bovine striatal membranes; type: cell membranes, Striatum, Membrane
D(2) dopamine receptor [4] = molecular target: T3, D(2) dopamine receptor (Rattus norvegicus, UniProt P61169); experiment: Effective concentration to stimulate rat Dopamine receptor D2L mediated [3H]thymidine incorporation into growing cells using mitogenesis assay
D(2) dopamine receptor [5] = molecular target: T3, D(2) dopamine receptor; experiment: Effective concentration to stimulate rat Dopamine receptor D2S mediated [3H]thymidine incorporation into growing cells using mitogenesis assay
D(2) dopamine receptor [6] = molecular target: T4, D(2) dopamine receptor (Homo sapiens, UniProt P14416); type: cell-based, CHO
D(2) dopamine receptor [7] = molecular target: T4, D(2) dopamine receptor; type: cell-based, CHO; remark: listed apart in the source
D(2) dopamine receptor [8] = molecular target: T4, D(2) dopamine receptor; type: cell-based, CHO; remark: listed apart in the source
Description: High inhibition constant against [3H]spiperone binding to human Dopamine receptor D2L expressed in CHO cells

D(2) dopamine receptor [9] = molecular target: T4, D(2) dopamine receptor; type: cell-based, CHO; remark: listed apart in the source
[10] = molecular target: D(2) dopamine receptor (Rattus norvegicus) (UniProt P61169); experiment: Intrinsic activity to sitmulate rat Dopamine receptor D2L mediated [3H]thymidine incorporation into growing cells using mitogenesis assay
[11] = molecular target: D(2) dopamine receptor (Rattus norvegicus) (UniProt P61169); experiment: Intrinsic activity to stimulate rat Dopamine receptor D2S mediated [3H]-thymidine incorporation into growing cells using mitogenesis assay
D(3) dopamine receptor [12] = molecular target: T1, D(3) dopamine receptor
Description: Effective concentration to stimulate human Dopamine receptor D3 mediated [3H]-thymidine incorporation into growing cells using mitogenesis assay

D(3) dopamine receptor [13] = molecular target: T1, D(3) dopamine receptor; remark: listed apart in the source
D(3) dopamine receptor [14] = molecular target: T1, D(3) dopamine receptor; remark: listed apart in the source
D(4) dopamine receptor [15] = molecular target: T2, D(4) dopamine receptor
Description: Effective concentration to stimulate human Dopamine receptor D4.2 mediated [3H]thymidine incorporation into growing cells using mitogenesis assay

T4 sequence (P14416 whole entry): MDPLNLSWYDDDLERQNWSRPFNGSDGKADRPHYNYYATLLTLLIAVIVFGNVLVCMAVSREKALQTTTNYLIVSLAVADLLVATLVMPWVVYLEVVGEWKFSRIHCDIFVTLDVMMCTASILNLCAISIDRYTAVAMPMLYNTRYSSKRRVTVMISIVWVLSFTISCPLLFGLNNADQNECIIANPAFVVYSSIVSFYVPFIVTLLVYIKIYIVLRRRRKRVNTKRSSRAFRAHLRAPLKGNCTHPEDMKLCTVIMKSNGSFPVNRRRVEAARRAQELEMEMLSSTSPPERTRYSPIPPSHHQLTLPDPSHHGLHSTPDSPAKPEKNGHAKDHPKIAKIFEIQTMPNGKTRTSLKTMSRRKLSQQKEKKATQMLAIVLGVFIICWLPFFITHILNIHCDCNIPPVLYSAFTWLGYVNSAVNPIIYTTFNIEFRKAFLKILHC
T1 sequence (P35462 whole entry): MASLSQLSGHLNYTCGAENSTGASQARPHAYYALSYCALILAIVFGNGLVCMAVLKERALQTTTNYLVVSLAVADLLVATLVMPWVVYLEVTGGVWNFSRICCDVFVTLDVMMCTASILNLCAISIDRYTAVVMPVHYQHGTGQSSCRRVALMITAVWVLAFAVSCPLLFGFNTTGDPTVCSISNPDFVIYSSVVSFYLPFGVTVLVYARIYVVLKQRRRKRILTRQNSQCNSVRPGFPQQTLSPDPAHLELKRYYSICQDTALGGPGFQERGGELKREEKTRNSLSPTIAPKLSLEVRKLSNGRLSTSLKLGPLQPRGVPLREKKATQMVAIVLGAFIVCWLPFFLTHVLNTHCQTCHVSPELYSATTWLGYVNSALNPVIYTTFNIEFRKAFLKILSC
T3 sequence (P61169 whole entry): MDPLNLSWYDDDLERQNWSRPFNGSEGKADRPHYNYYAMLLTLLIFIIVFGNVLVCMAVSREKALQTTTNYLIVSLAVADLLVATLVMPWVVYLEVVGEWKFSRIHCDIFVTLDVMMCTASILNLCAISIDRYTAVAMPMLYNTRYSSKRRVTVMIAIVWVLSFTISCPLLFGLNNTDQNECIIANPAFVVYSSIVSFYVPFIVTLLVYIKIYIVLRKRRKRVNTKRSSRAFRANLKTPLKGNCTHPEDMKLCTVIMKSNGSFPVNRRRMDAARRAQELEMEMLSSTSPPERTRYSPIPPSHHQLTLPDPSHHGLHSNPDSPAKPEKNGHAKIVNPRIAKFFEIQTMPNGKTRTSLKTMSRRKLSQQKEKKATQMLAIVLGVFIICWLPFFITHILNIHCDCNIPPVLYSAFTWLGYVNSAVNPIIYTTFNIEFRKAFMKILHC
Chain of D(2) dopamine receptor (Rattus norvegicus) (P61169 whole entry): as above
Chain of D(1A) dopamine receptor (Q95136 whole entry): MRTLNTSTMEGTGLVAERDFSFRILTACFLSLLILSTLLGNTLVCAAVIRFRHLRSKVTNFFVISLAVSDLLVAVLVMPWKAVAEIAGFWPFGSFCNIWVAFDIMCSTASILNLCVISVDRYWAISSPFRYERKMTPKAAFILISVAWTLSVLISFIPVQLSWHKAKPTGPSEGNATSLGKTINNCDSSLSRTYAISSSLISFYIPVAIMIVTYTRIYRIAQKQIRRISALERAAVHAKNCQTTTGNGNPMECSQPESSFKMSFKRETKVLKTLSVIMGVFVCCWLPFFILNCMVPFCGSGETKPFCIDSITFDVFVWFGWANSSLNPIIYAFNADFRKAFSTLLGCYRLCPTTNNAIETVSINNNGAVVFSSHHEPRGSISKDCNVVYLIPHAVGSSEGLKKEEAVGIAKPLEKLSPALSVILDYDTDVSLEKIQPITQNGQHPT

| SMILES | Ki (D(3) dopamine receptor [1]) [nM] | further results |
| --- | --- | --- |
| CCCN(CCC)[C@H]1CCn2ccc(C)c2C1 | 676 | – |
| CCCN(CCC)[C@@H]1CCn2c(ccc2C(C)=O)C1 | 2820 | – |
| CCCN(CCC)[C@@H]1CCn2c(ccc2C(=O)C(F)(F)F)C1 | 2510 | – |
| CCCN(CCC)[C@H]1CCn2c(C#N)ccc2C1 | 7.24 | Ki (D(4) dopamine receptor [2]): 9700 nM; Ki (D(4) dopamine receptor [3]): 40 nM; Ki (D(1A) dopamine receptor): > 20000 nM; EC50 (D(2) dopamine receptor [4]): 42 nM; EC50 (D(2) dopamine receptor [5]): 130 nM; Ki (D(2) dopamine receptor [6]): 6500 nM; Ki (D(2) dopamine receptor [7]): 5100 nM; Ki (D(2) dopamine receptor [8]): 190 nM; Ki (D(2) dopamine receptor [9]): 130 nM; Intrinsic activity [10]: 99%; Intrinsic activity [11]: 95%; EC50 (D(3) dopamine receptor [12]): 2.4 nM; Ki (D(3) dopamine receptor [13]): 140 nM; Ki (D(3) dopamine receptor [14]): 7.2 nM |
| CCCN(CCC)[C@H]1CCn2c(/C=N\O)ccc2C1 | 49 | – |
| CCCN(CCC)[C@@H]1CCc2c(ccn2C=O)C1 | 43.7 | – |
| CCCN(CCC)[C@@H]1CCn2c(ccc2C(=O)c2ccccc2)C1 | 1550 | – |
| CCCN(CCC)[C@@H]1CCn2cccc2C1 | 1660 | – |
| CCCN(CCC)[C@H]1CCn2c(ccc2CN(C)C)C1 | 3630 | – |
| CCCN(CCC)[C@@H]1CCn2c(C=C(C#N)C#N)ccc2C1 | 6030 | – |
| CCCN(CCC)[C@H]1CCn2cc(C)cc2C1 | 794 | – |
| CCCN(CCC)[C@@H]1CCn2c(/C=N\O)ccc2C1 | 4790 | – |
| CCCN(CCC)[C@H]1CCc2c(ccn2C=O)C1 | 38.9 | – |
| CCCN(CCC)[C@@H]1CCn2c(ccc2C(=O)C(Cl)(Cl)Cl)C1 | 87.1 | – |
| CCCN(CCC)[C@@H]1CCn2ccc(C=O)c2C1 | 501 | – |
| CCCN(CCC)[C@H]1CCn2c(/C=N/O)ccc2C1 | 30.9 | – |
| CCCN(CCC)[C@H]1CCn2c(C)ccc2C1 | 417 | – |
| CCCN(CCC)[C@@H]1CCn2ccc(C)c2C1 | 1450 | – |
| CCCN(CCC)[C@@H]1CCn2c(/C=N/O)ccc2C1 | 2090 | – |

| SMILES | Ki (D(3) dopamine receptor [1]) [nM] | further results |
| --- | --- | --- |
| CCCN(CCC)[C@@H]1CCn2cc(C)cc2C1 | 912 | – |
| CCCN(CCC)[C@H]1CCn2c(ccc2-c2ccccc2)C1 | 7940 | – |
| CCCN(CCC)[C@H]1CCn2c(C=O)ccc2C1 | 5.25 | Ki (D(4) dopamine receptor [2]): 2500 nM; Ki (D(4) dopamine receptor [3]): 32 nM; EC50 (D(4) dopamine receptor [15]): 4200 nM; Ki (D(1A) dopamine receptor): > 20000 nM; EC50 (D(2) dopamine receptor [4]): 11 nM; EC50 (D(2) dopamine receptor [5]): 79 nM; Ki (D(2) dopamine receptor [6]): 6900 nM; Ki (D(2) dopamine receptor [7]): 3000 nM; Ki (D(2) dopamine receptor [8]): 52 nM; Ki (D(2) dopamine receptor [9]): 41 nM; Intrinsic activity [10]: 98%; Intrinsic activity [11]: 101%; EC50 (D(3) dopamine receptor [12]): 1.1 nM; Ki (D(3) dopamine receptor [14]): 5.3 nM |
| CCCN(CCC)[C@H]1CCn2c(ccc2C(=O)OCC)C1 | 4370 | – |
| CCCN(CCC)[C@H]1CCn2c(ccc2C(=O)C(F)(F)F)C1 | 22.9 | – |
| CCCN(CCC)[C@@H]1CCn2c(ccc2CN(C)C)C1 | 12000 | – |
| CCCN(CCC)[C@H]1CCn2cccc2C1 | 575 | – |
| CCCN(CCC)[C@H]1CCn2c(ccc2C(=O)c2ccccc2)C1 | 1910 | – |
| CCCN(CCC)[C@@H]1CCn2ccc(CO)c2C1 | 324 | – |
| CCCN(CCC)[C@H]1CCn2c(ccc2C(C)=O)C1 | 45.7 | – |
| CCCN(CCC)[C@@H]1CCn2c(ccc2C(=O)OCC)C1 | 324 | – |
| CCCN(CCC)[C@H]1CCn2c(C=C(C#N)C#N)ccc2C1 | 60.3 | – |
| CCCN(CCC)[C@@H]1CCn2c(C)ccc2C1 | 617 | – |
| CCCN(CCC)[C@@H]1CCn2c(ccc2-c2ccccc2)C1 | 2400 | – |
| CCCN(CCC)[C@@H]1CCn2c(C#N)ccc2C1 | 2820 | – |
| CCCN[C@H]1CCc2nc(N)sc2C1 [PRAMIPEXOLE] | – | Ki (D(1A) dopamine receptor): > 20000 nM; Intrinsic activity [10]: 85%; Intrinsic activity [11]: 103% |
| CCCN(CCC)[C@@H]1CCn2c(CO)ccc2C1 | 724 | – |
| Oc1ccc2c(c1O)-c1cccc3c1[C@@H](C2)NCC3 | 58.9 | – |
| CCCN(CCC)[C@H]1CCn2c(ccc2C(=O)C(Cl)(Cl)Cl)C1 | 263 | – |
